Experimental data reported in ChEMBL document CHEMBL3526017, “Predicting the drug interaction potential of AMG 853, a dual antagonist of the D-prostanoid and chemoattractant receptor-homologous molecule expressed on T helper 2 cells receptors” (Drug Metab Dispos, 2012).

Experiments:
[1] = biological target: UDP-glucuronosyltransferase 1A8 (Homo sapiens, UniProt Q9HAW9); assay: (§1) Drug metabolism assessed as human recombinant UGT1A8-mediated (2S,3S,4S,5R,6S)-6-(2-(4-(4-(tert-butylcarbamoyl)-2-(2-chloro-4-cyclopropylphenylsulfonamido)phenoxy)-5-chloro-2-fluorophenyl)acetoxy)-3,4,5-trihydroxytetrahydro-2H-pyran-2-carboxylic acid formation at 10 uM after 30 mins by LC-MS/MS analysis; format: ADME; conditions: recombinant enzyme, 0.5 h
Chain of UDP-glucuronosyltransferase 1A8 (Q9HAW9 whole entry): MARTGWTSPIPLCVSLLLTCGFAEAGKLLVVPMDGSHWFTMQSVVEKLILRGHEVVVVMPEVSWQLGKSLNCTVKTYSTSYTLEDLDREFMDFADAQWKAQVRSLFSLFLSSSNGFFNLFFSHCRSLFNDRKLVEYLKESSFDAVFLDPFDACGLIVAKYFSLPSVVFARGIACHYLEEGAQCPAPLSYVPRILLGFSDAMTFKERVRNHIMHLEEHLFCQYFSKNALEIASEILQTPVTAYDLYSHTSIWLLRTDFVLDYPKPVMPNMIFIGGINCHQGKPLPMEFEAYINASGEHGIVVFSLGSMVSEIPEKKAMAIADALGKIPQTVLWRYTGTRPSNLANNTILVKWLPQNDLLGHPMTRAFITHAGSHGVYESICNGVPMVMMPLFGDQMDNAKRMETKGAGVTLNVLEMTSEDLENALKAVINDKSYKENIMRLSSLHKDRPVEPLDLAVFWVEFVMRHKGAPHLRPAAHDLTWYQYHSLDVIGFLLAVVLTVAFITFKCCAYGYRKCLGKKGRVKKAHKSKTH

[2] = biological target: CYP1A2 (Homo sapiens, UniProt P05177); assay: Induction of CYP1A2 in human hepatocytes using phenacetin as substrate at 0.3 to 30 uM treated every 24 hrs for 2 days measured on day 5 by LC-MS/MS analysis relative to control; format: ADME, cell-based, Hepatocyte; conditions: probe phenacetin, read-out: FC
Chain of CYP1A2 (P05177 whole entry): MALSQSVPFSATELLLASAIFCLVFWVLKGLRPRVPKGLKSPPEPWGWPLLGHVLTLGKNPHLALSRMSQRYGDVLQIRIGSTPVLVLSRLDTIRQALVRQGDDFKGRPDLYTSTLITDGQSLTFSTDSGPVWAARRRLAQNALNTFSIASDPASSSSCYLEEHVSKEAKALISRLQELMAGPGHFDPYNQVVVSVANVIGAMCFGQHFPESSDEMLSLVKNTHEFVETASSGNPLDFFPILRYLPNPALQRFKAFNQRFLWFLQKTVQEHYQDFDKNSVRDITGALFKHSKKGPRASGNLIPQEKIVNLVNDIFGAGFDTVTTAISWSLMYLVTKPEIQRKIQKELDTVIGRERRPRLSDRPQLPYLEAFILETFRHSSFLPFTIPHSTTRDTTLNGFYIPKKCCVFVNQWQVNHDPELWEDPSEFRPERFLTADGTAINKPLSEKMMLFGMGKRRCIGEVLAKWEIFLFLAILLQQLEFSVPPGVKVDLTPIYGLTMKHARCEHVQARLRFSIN

[3] = biological target: CYP2C9 (Homo sapiens, UniProt P11712); assay: Induction of CYP2C9 in human hepatocytes using diclofenac as substrate at 0.3 to 30 uM treated every 24 hrs for 2 days measured on day 5 by LC-MS/MS analysis relative to control; format: ADME, cell-based, Hepatocyte; conditions: probe diclofenac, read-out: FC
Chain of CYP2C9 (P11712 whole entry): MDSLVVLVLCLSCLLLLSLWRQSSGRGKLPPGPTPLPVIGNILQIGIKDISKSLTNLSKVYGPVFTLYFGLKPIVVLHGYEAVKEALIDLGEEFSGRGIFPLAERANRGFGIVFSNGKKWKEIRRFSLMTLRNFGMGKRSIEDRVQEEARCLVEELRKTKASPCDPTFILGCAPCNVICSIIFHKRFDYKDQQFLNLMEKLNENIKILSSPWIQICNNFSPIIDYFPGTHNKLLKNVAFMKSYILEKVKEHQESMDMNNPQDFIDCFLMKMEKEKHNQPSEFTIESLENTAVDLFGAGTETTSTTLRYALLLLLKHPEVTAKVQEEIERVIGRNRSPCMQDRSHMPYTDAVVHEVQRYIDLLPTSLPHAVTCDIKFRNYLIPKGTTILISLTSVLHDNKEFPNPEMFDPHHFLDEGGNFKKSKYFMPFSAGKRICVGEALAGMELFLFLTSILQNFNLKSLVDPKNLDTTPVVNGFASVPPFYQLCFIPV

[4] = biological target: UDP-glucuronosyltransferase 2B17 (Homo sapiens, UniProt O75795); assay: as §1, with “UGT2B17-mediated” for “UGT1A8-mediated”; format: ADME; conditions: recombinant enzyme, 0.5 h
Chain of UDP-glucuronosyltransferase 2B17 (O75795 whole entry): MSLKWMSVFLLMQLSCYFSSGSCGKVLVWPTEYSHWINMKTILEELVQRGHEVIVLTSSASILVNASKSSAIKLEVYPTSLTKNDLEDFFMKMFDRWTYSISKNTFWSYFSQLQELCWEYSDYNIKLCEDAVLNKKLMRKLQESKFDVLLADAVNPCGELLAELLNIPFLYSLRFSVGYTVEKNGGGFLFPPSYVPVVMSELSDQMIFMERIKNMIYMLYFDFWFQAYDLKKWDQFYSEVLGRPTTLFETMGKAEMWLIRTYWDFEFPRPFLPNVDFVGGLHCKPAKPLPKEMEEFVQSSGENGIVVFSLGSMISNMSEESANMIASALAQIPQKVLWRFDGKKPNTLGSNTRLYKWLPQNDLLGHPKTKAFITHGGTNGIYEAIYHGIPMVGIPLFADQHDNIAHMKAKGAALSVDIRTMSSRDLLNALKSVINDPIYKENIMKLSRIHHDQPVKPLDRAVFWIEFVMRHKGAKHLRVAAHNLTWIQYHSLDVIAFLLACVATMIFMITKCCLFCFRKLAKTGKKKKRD

[5] = biological target: Cytochrome P450 3A7 (Homo sapiens, UniProt P24462); assay: Drug metabolism assessed as recombinant CYP3A7 (unknown origin)-mediated 2-(5-chloro-4-(2-(2-chloro-4-cyclopropylphenylsulfonamido)-4-(1-hydroxy-2-methylpropan-2-ylcarbamoyl)phenoxy)-2-fluorophenyl)acetic acid formation at 10 uM after 30 mins by LC-MS/MS analysis; format: ADME; conditions: recombinant enzyme, 0.5 h
Chain of Cytochrome P450 3A7 (P24462 whole entry): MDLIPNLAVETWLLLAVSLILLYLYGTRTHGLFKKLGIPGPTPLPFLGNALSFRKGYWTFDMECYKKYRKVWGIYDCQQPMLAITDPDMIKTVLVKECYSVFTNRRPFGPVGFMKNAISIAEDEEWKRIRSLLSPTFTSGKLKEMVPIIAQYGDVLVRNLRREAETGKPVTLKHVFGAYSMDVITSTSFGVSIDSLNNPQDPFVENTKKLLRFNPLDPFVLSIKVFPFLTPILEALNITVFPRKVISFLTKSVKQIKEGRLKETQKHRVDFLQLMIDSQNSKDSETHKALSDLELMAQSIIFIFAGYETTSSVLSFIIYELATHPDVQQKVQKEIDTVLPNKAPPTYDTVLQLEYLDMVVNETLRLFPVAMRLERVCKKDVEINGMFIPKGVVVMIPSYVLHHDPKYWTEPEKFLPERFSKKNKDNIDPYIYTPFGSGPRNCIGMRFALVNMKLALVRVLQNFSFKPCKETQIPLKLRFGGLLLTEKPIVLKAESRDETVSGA

[6] = system: CYP2B6; assay: Upregulation of CYP2B6 mRNA expression in human hepatocytes at 0.3 to 30 uM treated every 24 hrs for 2 days measured on day 5 relative to control; format: ADME, cell-based, Hepatocyte; conditions: read-out: FC
[7] = biological target: T1, UDP-glucuronosyltransferase 1A1 (Homo sapiens, UniProt P22309); assay: Drug metabolism assessed as human recombinant UGT1A1-mediated compound formation treated with AMG 853 at 10 uM after 30 mins by LC-MS/MS analysis; format: ADME; conditions: recombinant enzyme, 0.5 h
T1 sequence (P22309 whole entry): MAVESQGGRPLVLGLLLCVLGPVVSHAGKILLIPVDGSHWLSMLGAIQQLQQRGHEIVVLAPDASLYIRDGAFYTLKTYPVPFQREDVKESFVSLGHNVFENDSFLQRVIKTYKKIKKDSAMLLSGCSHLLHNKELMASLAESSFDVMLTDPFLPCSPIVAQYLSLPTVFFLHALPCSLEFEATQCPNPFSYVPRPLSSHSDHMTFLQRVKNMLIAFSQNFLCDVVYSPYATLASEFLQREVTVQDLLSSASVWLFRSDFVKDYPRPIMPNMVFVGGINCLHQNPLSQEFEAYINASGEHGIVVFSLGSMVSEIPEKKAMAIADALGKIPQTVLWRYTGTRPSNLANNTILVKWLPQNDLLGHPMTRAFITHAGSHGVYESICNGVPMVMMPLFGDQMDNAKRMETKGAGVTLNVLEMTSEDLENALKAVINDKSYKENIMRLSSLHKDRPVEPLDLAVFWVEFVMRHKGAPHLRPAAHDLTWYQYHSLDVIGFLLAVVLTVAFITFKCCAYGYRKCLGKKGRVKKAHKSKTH

Row | fold induction at 48 h, up to 30 µM [2] | fold induction at 48 h, up to 30 µM [3] | Drug metabolism [5] | fold induction at 48 h, up to 30 µM [6] | Drug metabolism [7] | SMILES | Drug metabolism [1] | Drug metabolism [4]
1 | 1.4 | 1.4 | metabolite_detected | 1.7 | – | CC(C)(C)NC(=O)c1ccc(Oc2cc(F)c(CC(=O)O)cc2Cl)c(NS(=O)(=O)c2ccc(C3CC3)cc2Cl)c1 [VIDUPIPRANT] | metabolite_detected | metabolite_not_detected
2 | – | – | – | – | metabolite_detected | CC(C)(C)NC(=O)c1ccc(Oc2cc(F)c(CC(=O)O[C@@H]3O[C@H](C(=O)O)[C@@H](O)[C@H](O)[C@H]3O)cc2Cl)c(NS(=O)(=O)c2ccc(C3CC3)cc2Cl)c1 | – | –
